The text below walks through data of patent US8563516B2, “Foxp3 peptide vaccine” (OncoTherapy Science, Inc., priority 2007, dated 2013).

Common to all, as to assay type: cell-based, human
One assay concerns peptide-pulsed T2 cells. Put plainly: IFN-gamma ELISPOT on CTLs induced with HLA-A0201 restricted Foxp3 peptides. Conditions: FIG. 2A/2B/2C. The text has this:
(§1) Monocyte-derived dendritic cells (DCs) were used as antigen-presenting cells (APCs) to induce CTL responses against peptides presented on HLA. DCs were generated in vitro as described elsewhere (Horiguchi S. et al. Cancer Res. 59:2950-6). Specifically, peripheral blood mononuclear cells (PBMCs) isolated from normal volunteer (HLA-A*2402 and/or HLA-A*0201) with Ficoll-Plaque (Pharmacia) solution were separated by adherence to plastic tissue culture dish (Becton Dickinson) so as to enrich them for the monocyte fraction. The monocyte-enriched population was cultured in the presence of 1000 U/ml of GM-CSF (R&D System) and 1000 U/ml of IL-4 (R&D System) in AIM-V medium (Invitrogen) containing 2% heat-inactivated autologous serum (AS). After 7 days in the culture, the cytokine-generated DCs were pulsed with 20 mcg/ml of the synthesized peptides in the presence of 3 mcg/ml of beta2-microglobulin for 4 hrs at 20 degrees C. in AIM-V medium. These peptide-pulsed DCs were then inactivated with mitomycin C (MMC) (30 mcg/ml for 30 mins) and mixed at a 1:20 ratio with autologous CD8+ T cells, obtained by positive selection with CD8 Positive Isolation Kit (Dynal). These cultures were set up in 48-well plates (Corning); each well contained 1.5×10^4 peptide-pulsed DCs, 3×10^5 CD8+ T cells and 10 ng/ml of IL-7 (R&D System) in 0.5 ml of AIM-V/2% AS. Three days later, these cultures were supplemented with IL-2 (CHIRON) to a final concentration of 20 IU/ml. On day 7 and 14, the T cells were further restimulated with the peptide-pulsed autologous DCs. The DCs were prepared each time through the same procedure described above. CTL activity was tested against peptide-pulsed A24LCL cells or T2 cells after the 3rd round of peptide stimulation on day 21.
(§2) To examine the specific CTL activity, IFN-gamma ELISPOT assay and IFN-gamma ELISA were performed. Briefly, peptide-pulsed A24-LCL, T2 cell (1×10^4/well) or the cells endogenously expressing Foxp3 and HLA molecule was prepared as a stimulator cells. Cultured CTL lines in 48 wells were used as a responder cells. IFN-gamma ELISPOT assay and IFN-gamma ELISA were performed under manufacture procedure.
Resulting CTLs showing detectable specific CTL activity were shown in FIG. 2A, FIG. 2B and FIG. 2C when performed by IFN-gamma ELISPOT assay.

Assay [1] has as its system 293T that transfected both Foxp3 and HLA-A02. Kind of assay: Specific CTL activity against target cells expressing Foxp3 and HLA-A02. The procedure:
as §2
(§3) The established CTL clone raised against these peptides were examined for their ability to recognize the target cells endogenously expressing Foxp3 and HLA-A*24 or 02. Specific CTL activity against 293T transfected both full length of Foxp3 gene and HLA-A*24 or 02 molecule, which is specific model for the target cells endogenously express Foxp3 and HLA-A*24 or 02, was tested using the CTL lines raised by Foxp3-A02-9-390 (SEQ ID NO: 15) and Foxp3-A02-9-252 (SEQ ID NO: 17) as effector cells. […] Furthermore, these peptides were epitope peptides, which can utilize vaccine targeting Foxp3 expressed T-regs.

The test system of assay [2] is 293T that transfected both Foxp3 and HLA-A24. Kind of assay: Specific CTL activity against target cells expressing Foxp3 and HLA-A24. As to the method:
as §2, §3

The subject of another assay is peptide pulsed T2 cells. Kind of assay: IFN-gamma ELISPOT: CTL line induced with Foxp3-9-252-WT against T2 cells pulsed with substituted peptide. The following applies: FIG. 7A. The procedure: IFN-gamma ELISPOT assay was performed using CTL line induced with Foxp3-9-252-WT peptide as responder cells and T2 cells pulsed Foxp3-9-252-WT or Foxp3-9-252-9V peptide as stimulator cells, respectively. T2 cells without peptide pulse were prepared as control. […] IFN-gamma ELISA assay was performed using CTL line induced with Foxp3-9-252-WT peptide as responder cells (1×10^5 cells/well) and Foxp3-9-252-WT (-solid circle-), Foxp3-9-252-9V (-open circle-) or HIV-A02 (-solid triangle-) peptide pulsed T2 cells as stimulator cells (1×10^4 cells/well). Peptide pulse of stimulator cells was conducted at 37 degree Celsius for 2 hours in each kind of peptide and peptide concentration.
as §2
And then the present inventers examined whether peptide-pulsed stimulator cells using these substitutions were recognized by CTLs generated with Foxp3-9-252-WT peptide.

The subject of assay [3] is peptide-pulsed A24LCL cells or T2 cells. Kind of assay: In vitro CTL induction by peptide-loaded dendritic cells (summary statements).
From the text: Confirmation of CTL inducibility can be accomplished by inducing antigen-presenting cells carrying human MHC antigens (for example, B-lymphocytes, macrophages, and dendritic cells), or more specifically dendritic cells derived from human peripheral blood mononuclear leukocytes, and after stimulation with the peptides, mixing with CD8-positive cells, and then measuring the IFN-gamma produced and released by CTL against the target cells. As the reaction system, transgenic animals that have been produced to express a human HLA antigen (for example, those described in BenMohamed L, Krishnan R, Longmate J, Auge C, Low L, Primus J, Diamond D J, Hum Immunol 61(8): 764-79, 2000 August, Related Articles, Books, Linkout Induction of CTL response by a minimal epitope vaccine in HLA A*0201/DR1 transgenic mice: dependence on HLA class II restricted T(H) response) can be used. For example, the target cells can be radiolabeled with ^51Cr and such, and cytotoxic activity can be calculated from radioactivity released from the target cells. Alternatively, it can be examined by measuring IFN-gamma produced and released by CTL in the presence of antigen-presenting cells that carry immobilized peptides, and visualizing the inhibition zone on the media using anti-IFN-gamma monoclonal antibodies.
as §1, §2

For “KLSAMQAHL (peptide vaccine) [SEQ ID NO 17]”, the “IFN-gamma production of CTLs stimulated with peptide, compared with the control” value in the assay with peptide-pulsed T2 cells was “potent IFN-gamma production”. For the same sequence, the “specific CTL activity of CTL lines raised by peptide” value in assay [1] (against 293T transfected with both Foxp3 and HLA-A02, FIG. 4A/4B) is on record as “high specific CTL activity”; in assay [2] (against 293T transfected with both Foxp3 and HLA-A24, FIG. 4C) it was “high specific CTL activity”. Further, the “specific CTL activity against controls” value in assay [1] (controls of FIG. 4A/4B) and in assay [2] (controls of FIG. 4C) was “did not show significant specific CTL activity” throughout. In addition, the “IFN-gamma production of Foxp3-9-252-WT induced CTLs against peptide pulsed T2 cells” value with peptide pulsed T2 cells is “produced IFN-gamma”. The “specific CTL activity” value in assay [3] (against peptide pulsed target cells) is “significant and specific CTL activity”. Moreover, the “establishment of CTLs” value in assay [3] (in vitro stimulation of T-cells by DCs loaded with peptide) is on record as “CTLs were successfully established”.
